Test results from ChEMBL document CHEMBL1201862, “PubChem BioAssay data set” (2004).
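Growth conditions: 96-well plates. Treatment: test compound, 48 hours, 5 concentrations. Analysis: linear interpolation between bracketing concentrations; unreached endpoints set to highest concentration. At the GI50, growth is halved.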 Activity calls are given as the source filed them. No stated cut-off is given here; in the data, active = GI50 up to about 1.1 µM and inactive = higher.

What was measured:
Test in all cases: growth of human tumour cells (NCI), 48 h
[1] = test system: NCI-H522
[2] = test system: IGROV-1
[3] = test system: HOP-62
[4] = test system: OVCAR-5
[5] = test system: RXF 393
[6] = test system: SN12C
[7] = test system: KM12
[8] = test system: COLO 205
[9] = test system: LOX IMVI
[10] = test system: A549
[11] = test system: HT-29
[12] = test system: OVCAR-3
[13] = test system: MDA-MB-435
[14] = test system: K562
[15] = test system: DU-145
[16] = test system: HCT-15
[17] = test system: CAKI-1
[18] = test system: BT-549
[19] = test system: SNB-19
[20] = test system: SF-268

| Structure (SMILES) | GI50 [1] | GI50 [2] | GI50 [3] | GI50 [4] | GI50 [5] | GI50 [6] | GI50 [7] | GI50 [8] | GI50 [9] | GI50 [10] | GI50 [11] | GI50 [12] | GI50 [13] | GI50 [14] | GI50 [15] | GI50 [16] | GI50 [17] | GI50 [18] | GI50 [19] | GI50 [20] |
| --- | --- | --- | --- | --- | --- | --- | --- | --- | --- | --- | --- | --- | --- | --- | --- | --- | --- | --- | --- | --- |
| CCOC(=S)SC/C(=N\OC(C)(C)OC)c1ccccc1 | 24.1 µM (inactive) | 46.5 µM (inactive) | 42.1 µM (inactive) | 40.4 µM (inactive) | 25.6 µM (inactive) | 89.7 µM (inactive) | 31.9 µM (inactive) | 42.8 µM (inactive) | 16.3 µM (inactive) | 44.7 µM (inactive) | 23 µM (inactive) | 41.1 µM (inactive) | 25 µM (inactive) | 20.6 µM (inactive) | > 100 µM (inactive) | 32.5 µM | > 100 µM (inactive) | 44 µM (inactive) | > 100 µM (inactive) | 56.9 µM (inactive) |
| N#Cc1[nH]c(=O)n(-c2cccc3ccccc23)c1N | > 10 µM (inactive) | > 10 µM (inactive) | > 10 µM (inactive) | > 10 µM (inactive) | > 10 µM (inactive) | > 10 µM (inactive) | > 10 µM (inactive) | > 10 µM (inactive) | > 10 µM (inactive) | > 10 µM (inactive) | > 10 µM (inactive) | > 10 µM (inactive) | > 10 µM (inactive) | > 10 µM (inactive) | > 10 µM (inactive) | > 10 µM | > 10 µM (inactive) | 4.61 µM (inactive) | > 10 µM (inactive) | > 10 µM (inactive) |
| O=c1c2cc([N+](=O)[O-])ccc2n(Cc2ccccc2)n1Cc1ccccc1 | 12 µM (inactive) | 20.8 µM (inactive) | > 31.6 µM (inactive) | > 31.6 µM (inactive) | 24.9 µM (inactive) | 20.5 µM (inactive) | 10.5 µM (inactive) | 18.8 µM (inactive) | 9.2 µM (inactive) | 18.6 µM (inactive) | 15.9 µM (inactive) | 15.6 µM (inactive) | 10.8 µM (inactive) | 6.38 µM (inactive) | 17.3 µM (inactive) | 20.1 µM | 22.2 µM (inactive) | 15.3 µM (inactive) | 29.6 µM (inactive) | 24.4 µM (inactive) |
| Oc1nc(S)nc2c1C(c1ccc(Cl)cc1)c1c(O)nc(S)nc1O2 | > 100 µM (inactive) | > 100 µM (inactive) | > 100 µM (inactive) | > 100 µM (inactive) | 0.514 µM (active) | > 100 µM (inactive) | > 100 µM (inactive) | > 100 µM (inactive) | > 100 µM (inactive) | > 100 µM (inactive) | > 100 µM (inactive) | > 100 µM (inactive) | > 100 µM (inactive) | > 100 µM (inactive) | > 100 µM (inactive) | > 100 µM | 25.8 µM (inactive) | > 100 µM (inactive) | > 100 µM (inactive) | 25.7 µM (inactive) |
| C1CCN(CCC2CCCCN2)CC1 (stereo not given) | > 100 µM (inactive) | > 100 µM (inactive) | > 100 µM (inactive) | > 100 µM (inactive) | > 100 µM (inactive) | > 100 µM (inactive) | > 100 µM (inactive) | > 100 µM (inactive) | > 100 µM (inactive) | > 100 µM (inactive) | > 100 µM (inactive) | > 100 µM (inactive) | > 100 µM (inactive) | > 100 µM (inactive) | > 100 µM (inactive) | > 100 µM | > 100 µM (inactive) | > 100 µM (inactive) | > 100 µM (inactive) | > 100 µM (inactive) |
| O=c1c2c3c(sc2nc2n1N=CN(c1ccc(F)cc1)C2)CCCC3 | > 100 µM (inactive) | > 100 µM (inactive) | > 100 µM (inactive) | > 100 µM (inactive) | > 100 µM (inactive) | > 100 µM (inactive) | > 100 µM (inactive) | > 100 µM (inactive) | > 100 µM (inactive) | > 100 µM (inactive) | > 100 µM (inactive) | > 100 µM (inactive) | > 100 µM (inactive) | > 100 µM (inactive) | > 100 µM (inactive) | > 100 µM | > 100 µM (inactive) | > 100 µM (inactive) | > 100 µM (inactive) | > 100 µM (inactive) |
| COc1ccc(-n2c3c(c4c(CN(C)C)c(O)ccc42)C(=O)c2ccccc2C3=O)cc1 | 12.3 µM (inactive) | 3.99 µM (inactive) | 2.02 µM (inactive) | 4.92 µM (inactive) | 4.63 µM (inactive) | 2.82 µM (inactive) | 3.2 µM (inactive) | 8.09 µM (inactive) | 2.49 µM (inactive) | 4.68 µM (inactive) | 2.19 µM (inactive) | 13.5 µM (inactive) | 6.93 µM (inactive) | 2.09 µM (inactive) | 12.9 µM (inactive) | 3.1 µM | 14.2 µM (inactive) | 13.6 µM (inactive) | 4.4 µM (inactive) | 10.1 µM (inactive) |
| CC(=O)OCC1OC(N2C(c3ccccc3)=CC(c3ccco3)C(C#N)=C2S)C(OC(C)=O)C(OC(C)=O)C1OC(C)=O (stereo not given) | 16.6 µM (inactive) | 27.4 µM (inactive) | 6.27 µM (inactive) | 6.9 µM (inactive) | 4.06 µM (inactive) | 4.22 µM (inactive) | 15.3 µM (inactive) | 3 µM (inactive) | 5.74 µM (inactive) | 9.44 µM (inactive) | 5.94 µM (inactive) | 5.75 µM (inactive) | 8.11 µM (inactive) | 4.25 µM (inactive) | 19.7 µM (inactive) | > 100 µM | 14.7 µM (inactive) | 3.59 µM (inactive) | 11.9 µM (inactive) | 4.63 µM (inactive) |
| CN(CCc1ccc(N)cc1)[C@H]1CCCC[C@H]1N1CCCC1 | > 100 µM (inactive) | > 100 µM (inactive) | > 100 µM (inactive) | > 100 µM (inactive) | > 100 µM (inactive) | > 100 µM (inactive) | > 100 µM (inactive) | > 100 µM (inactive) | > 100 µM (inactive) | > 100 µM (inactive) | 78.2 µM (inactive) | > 100 µM (inactive) | > 100 µM (inactive) | 70.3 µM (inactive) | > 100 µM (inactive) | > 100 µM | > 100 µM (inactive) | > 100 µM (inactive) | > 100 µM (inactive) | > 100 µM (inactive) |
| Cc1cc(C)nc(NC(=O)c2ccc(Br)s2)c1 | > 100 µM (inactive) | > 100 µM (inactive) | > 100 µM (inactive) | 17.7 µM (inactive) | > 100 µM (inactive) | > 100 µM (inactive) | > 100 µM (inactive) | 10.6 µM (inactive) | 35.3 µM (inactive) | 48.4 µM (inactive) | > 100 µM (inactive) | > 100 µM (inactive) | 79.1 µM (inactive) | > 100 µM (inactive) | > 100 µM (inactive) | 94.8 µM | > 100 µM (inactive) | > 100 µM (inactive) | > 100 µM (inactive) | > 100 µM (inactive) |
| c1ccc2c(c1)Nc1ccccc1[P+]21c2ccccc2Nc2ccccc21 | 0.179 µM (active) | 0.27 µM (active) | 0.313 µM (active) | 0.281 µM (active) | 0.303 µM (active) | 0.13 µM (active) | 0.0845 µM (active) | 0.048 µM (active) | 0.587 µM (active) | 0.182 µM (active) | 0.0853 µM (active) | 0.195 µM (active) | 0.284 µM (active) | 0.212 µM (active) | 0.318 µM (active) | 5.73 µM | 1.61 µM (inactive) | 0.153 µM (active) | 0.299 µM (active) | 0.383 µM (active) |
| Cc1nc2sc(C(=O)c3ccc(Cl)cc3)c(N)c2c(-c2ccccc2Cl)c1C(=O)Nc1ccccc1 | 5.51 µM (inactive) | 19 µM (inactive) | 15.8 µM (inactive) | 16 µM (inactive) | 14.7 µM (inactive) | 9.42 µM (inactive) | 18.5 µM (inactive) | 18.3 µM (inactive) | 12.2 µM (inactive) | 9.06 µM (inactive) | 12.2 µM (inactive) | 16.4 µM (inactive) | 12.2 µM (inactive) | 12.3 µM (inactive) | 19.1 µM (inactive) | 15.6 µM | 12 µM (inactive) | 20.2 µM (inactive) | 22.2 µM (inactive) | 19.3 µM (inactive) |
| Nc1cccc2cc(S(=O)(=O)Nc3ccc(C(=O)O)cc3)ccc12 | > 100 µM (inactive) | > 100 µM (inactive) | > 100 µM (inactive) | > 100 µM (inactive) | > 100 µM (inactive) | > 100 µM (inactive) | > 100 µM (inactive) | > 100 µM (inactive) | > 100 µM (inactive) | > 100 µM (inactive) | > 100 µM (inactive) | > 100 µM (inactive) | > 100 µM (inactive) | > 100 µM (inactive) | > 100 µM (inactive) | > 100 µM | > 100 µM (inactive) | > 100 µM (inactive) | > 100 µM (inactive) | > 100 µM (inactive) |
| c1ccc2c(c1)c1c(c3ccccc32)CN2CCCC2C1 (stereo not given) | 2.57 µM (inactive) | 2.7 µM (inactive) | 2.79 µM (inactive) | 3.94 µM (inactive) | 2.34 µM (inactive) | 2.7 µM (inactive) | 4.2 µM (inactive) | 3.63 µM (inactive) | 3.35 µM (inactive) | 2.96 µM (inactive) | 3.72 µM (inactive) | 3.26 µM (inactive) | 4.42 µM (inactive) | 8.39 µM (inactive) | 4.17 µM (inactive) | 4.09 µM | 4.07 µM (inactive) | 5.05 µM (inactive) | 2.66 µM (inactive) | 2.92 µM (inactive) |
